# Data reported in ChEMBL document CHEMBL1201862, “PubChem BioAssay data set” (2004).
# Activity calls are given as the source filed them.
# Tests used:
# 14-3-3 protein gamma = 14-3-3 protein gamma (Homo sapiens, UniProt P61981); test: modulators of 14-3-3 gamma client binding – dose response (AID 711); type: functional
# Troponin, cardiac muscle = Troponin, cardiac muscle (Homo sapiens, UniProt P19429+P45379+P63316); test: Fluorescence-based biochemical high throughput dose response assay for activators of the calcium sensitivity of cardiac Regulated Thin Filaments (RTF). [Related pubchem assays (depositor defined):AID493008, AID493018, AID504382, AID504383]; type: protein-complex assay
# Oxytocin receptor = Oxytocin receptor (Homo sapiens, UniProt P30559); test: Fluorescence-based cell-based high throughput dose response assay for potentiators of Oxytocin Receptor (OXTR). [Related pubchem assays: 434985 (Confirmation screen (OXTR potentiators in triplicate)), 2481 (Summary (OXTR potentiators)), 2445 (Primary screen (OXTR potentiators in singlicate))]; type: functional
# Chain of Oxytocin receptor (P30559 whole entry): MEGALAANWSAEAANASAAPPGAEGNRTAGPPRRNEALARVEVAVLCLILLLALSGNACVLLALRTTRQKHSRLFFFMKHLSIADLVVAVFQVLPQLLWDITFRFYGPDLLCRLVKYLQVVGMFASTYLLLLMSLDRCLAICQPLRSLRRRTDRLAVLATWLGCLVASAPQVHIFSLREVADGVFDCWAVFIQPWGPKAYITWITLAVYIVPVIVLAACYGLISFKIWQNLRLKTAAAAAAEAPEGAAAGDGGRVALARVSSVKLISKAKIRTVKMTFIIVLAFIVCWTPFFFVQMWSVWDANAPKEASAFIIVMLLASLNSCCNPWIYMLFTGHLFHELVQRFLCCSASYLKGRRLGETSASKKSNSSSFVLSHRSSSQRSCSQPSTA
# [1] = biological target: T1, Low molecular weight phosphotyrosine protein phosphatase (Homo sapiens, UniProt P24666); test: LMPTP phosphatase inhibitors, dose response, biochemical, OMFP substrate, fluorescence intensity, set 2 (AID 743307); type: functional
# T1 sequence (P24666 whole entry): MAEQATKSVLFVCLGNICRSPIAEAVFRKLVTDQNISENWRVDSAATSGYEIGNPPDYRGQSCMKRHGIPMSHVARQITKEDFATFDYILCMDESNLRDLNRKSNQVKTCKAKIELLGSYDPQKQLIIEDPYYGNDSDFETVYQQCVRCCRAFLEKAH
# [2] = biological target: T1, Low molecular weight phosphotyrosine protein phosphatase; test: LMPTP phosphatase inhibitors, colorimetric pNPP readout, dose response, orthogonal assay, biochemical, absorbance, pNPP substrate, LMPTP-A isoform, set 2 (AID 743308); type: functional
# Bcl-2-related protein A1 [3] = biological target: T2, Bcl-2-related protein A1 (Mus musculus, UniProt Q07440); test: Bfl-1 inhibitors blocking BH3 peptide binding, confirmation, biochemical, TR-FRET, mouse Bfl-1 (AID 621);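 further: TR-FRET binding of GST-Bfl-1 to FITC-labelled Bid peptide via terbium antibody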
# T2 sequence (Q07440 whole entry): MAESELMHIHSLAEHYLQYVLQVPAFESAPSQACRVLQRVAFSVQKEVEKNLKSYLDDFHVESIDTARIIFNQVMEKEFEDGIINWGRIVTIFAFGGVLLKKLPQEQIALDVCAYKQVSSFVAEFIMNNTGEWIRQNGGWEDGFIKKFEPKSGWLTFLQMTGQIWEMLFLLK
# Bcl-2-related protein A1 [4] = biological target: T2, Bcl-2-related protein A1; test: Bfl-1 binding inhibitors, SAR follow-up, biochemical, fluorescence polarization (AID 1070)
# [5] = M. tuberculosis growth inhibition, HTS (AID 449762); type: functional
# [6] = tested on: Streptococcus sp. 'group A'; test: growth inhibition of control SK(-) GAS strain, dose response, counter-screen for streptokinase expression inhibitor project, luminescence, kanamycin, BacTiterGlo, confirmation (AID 1900); type: functional, organism-based
# [7] = enhancers of respiration in Yfh1-depleted yeast, dose response, Friedreich's ataxia, plus single-dose screen (AID 1465); type: functional;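 further: yeast depleted of Yfh1p frataxin homolog grown on glycerol needing respiration; WST-1 tetrazolium dye reduction as measure of cellular dehydrogenase metabolic activity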
# Streptococcus = test: Group A Streptococcus viability loss, dose response, counter-screen for streptokinase expression inhibitor project, luminescence, BacTiterGlo (AID 1915); type: functional, organism-based;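 further: potency for reduction of bacterial viability or growth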
# Nonstructural protein 1 = Nonstructural protein 1 (Influenza A virus, UniProt Q194T2); type: functional, Influenza A virus (A/California/07/2009(H1N1))
# Chain of Nonstructural protein 1 (Q194T2 whole entry): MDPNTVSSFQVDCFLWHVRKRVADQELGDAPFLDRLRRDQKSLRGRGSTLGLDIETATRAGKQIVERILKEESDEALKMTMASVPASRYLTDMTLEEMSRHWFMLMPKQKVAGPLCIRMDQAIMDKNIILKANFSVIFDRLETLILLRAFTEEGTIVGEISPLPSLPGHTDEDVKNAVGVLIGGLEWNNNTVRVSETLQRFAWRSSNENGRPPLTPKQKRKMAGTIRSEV
# Leucine aminopeptidase = biological target: T3, Leucine aminopeptidase (Plasmodium falciparum 3D7, UniProt Q8IL11); test: P. falciparum M17LAP inhibitors, primary screen, biochemical, fluorogenic H-Leu-NHMec substrate, 1536-well (AID 1619); type: functional
# T3 sequence (Q8IL11 whole entry): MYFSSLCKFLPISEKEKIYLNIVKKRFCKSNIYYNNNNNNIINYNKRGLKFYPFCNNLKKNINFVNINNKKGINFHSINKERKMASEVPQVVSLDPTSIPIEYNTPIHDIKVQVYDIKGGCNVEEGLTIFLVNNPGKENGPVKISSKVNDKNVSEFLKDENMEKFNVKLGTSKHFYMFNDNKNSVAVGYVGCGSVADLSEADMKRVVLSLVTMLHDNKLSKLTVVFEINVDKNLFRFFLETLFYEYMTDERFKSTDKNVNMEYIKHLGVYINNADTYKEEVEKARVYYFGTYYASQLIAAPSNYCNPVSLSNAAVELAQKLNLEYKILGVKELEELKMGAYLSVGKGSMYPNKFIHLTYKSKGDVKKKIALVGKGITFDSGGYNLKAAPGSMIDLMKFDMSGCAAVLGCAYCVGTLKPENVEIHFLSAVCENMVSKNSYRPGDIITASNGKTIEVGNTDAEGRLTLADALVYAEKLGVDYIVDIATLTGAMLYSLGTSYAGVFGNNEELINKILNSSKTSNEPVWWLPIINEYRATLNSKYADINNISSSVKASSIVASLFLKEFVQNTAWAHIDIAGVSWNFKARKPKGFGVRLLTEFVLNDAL
# Aspartyl aminopeptidase = Aspartyl aminopeptidase (Plasmodium falciparum 3D7, UniProt Q8I2J3); test: Counterscreen for inhibitors of M1 and M17 aminopeptidases: QFRET-based biochemical high throughput dose response assay for inhibitors of the Plasmodium falciparum M18 Aspartyl Aminopeptidase (PFM18AAP). [Related PubChem assays: 1619 (Screening assay (M17LAP inhibitors).), 1445 (Screening assay (M1AAP inhibitors).)]
# Chain of Aspartyl aminopeptidase (Q8I2J3 whole entry): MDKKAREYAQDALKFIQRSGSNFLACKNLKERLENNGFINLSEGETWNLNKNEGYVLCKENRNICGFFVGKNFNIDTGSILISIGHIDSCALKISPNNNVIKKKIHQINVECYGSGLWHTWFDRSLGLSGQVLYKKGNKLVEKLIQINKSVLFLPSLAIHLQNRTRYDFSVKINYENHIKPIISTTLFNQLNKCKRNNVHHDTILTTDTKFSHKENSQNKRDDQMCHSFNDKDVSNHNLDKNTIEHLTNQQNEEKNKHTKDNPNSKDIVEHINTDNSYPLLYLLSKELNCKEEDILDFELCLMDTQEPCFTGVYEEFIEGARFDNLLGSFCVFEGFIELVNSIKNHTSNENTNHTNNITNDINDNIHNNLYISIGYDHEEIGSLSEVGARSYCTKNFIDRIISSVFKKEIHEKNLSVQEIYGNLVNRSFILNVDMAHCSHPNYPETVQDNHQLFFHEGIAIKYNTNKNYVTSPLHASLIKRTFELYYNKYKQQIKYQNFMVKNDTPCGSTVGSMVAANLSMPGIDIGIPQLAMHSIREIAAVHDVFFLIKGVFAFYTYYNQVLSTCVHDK
# Procathepsin L = Procathepsin L (Homo sapiens, UniProt P07711); test: cathepsin L inhibitors, dose response, counter-screen for M1/M17 aminopeptidase inhibitor project, biochemical, QFRET, 1536-well (AID 2214)
# [8] = inhibitors of Bluetongue virus cytopathic effect, confirmation, arbovirus, BSR cells (AID 1250); type: functional;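 further: protection from viral cytopathic effect measured as cell viability by ATP luminescence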
# [9] = biological target: Neuropeptide Y receptor type 2 (Homo sapiens, UniProt P49146); test: NPY-Y2 antagonist potency, selectivity check, dose response, counter-screen for NPY-Y1 antagonist project, cell-based (AID 1278); type: functional
# [10] = biological target: 5-hydroxytryptamine receptor 1E (Homo sapiens, UniProt P28566); test: Counterscreen assay for S1P3 antagonists: Dose response cell-based high throughput screening assay to identify antagonists of the 5-Hydroxytryptamine Receptor Subtype 1E (5HT1E). [Related pubchem assays: 1429, 485 ]; type: functional
# Chain of 5-hydroxytryptamine receptor 1E (P28566 whole entry): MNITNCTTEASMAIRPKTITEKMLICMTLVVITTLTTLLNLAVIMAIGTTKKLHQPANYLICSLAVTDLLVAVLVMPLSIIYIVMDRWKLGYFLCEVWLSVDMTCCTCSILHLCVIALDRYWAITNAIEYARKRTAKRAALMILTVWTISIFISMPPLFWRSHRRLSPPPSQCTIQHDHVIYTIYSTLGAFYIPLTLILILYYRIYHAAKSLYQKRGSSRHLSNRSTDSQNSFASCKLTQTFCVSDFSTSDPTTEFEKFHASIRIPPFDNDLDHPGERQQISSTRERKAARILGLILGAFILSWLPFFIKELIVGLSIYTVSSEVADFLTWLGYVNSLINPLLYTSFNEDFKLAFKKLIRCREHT
# [11] = biological target: Sphingosine 1-phosphate receptor 3 (Homo sapiens, UniProt Q99500); test: Dose response cell-based high throughput screening assay for antagonists of the Sphingosine 1-Phosphate Receptor 3 (S1P3). [Related pubchem assays: 1429, 485 ]; type: functional
# [12] = growth suppression of PTEN-null colon cells, dose response, cell-based, HCT116 PTEN knockout (AID 1047); type: functional;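 further: HCT116 colon tumor cells with PTEN knocked out; cells exposed to compound for 60 hours before readout; potency for loss of cell viability measured by luminescence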
# [13] = growth suppression of beta-catenin-knockout colon cells, dose response, cell-based, HCT116, human colon tumor (AID 1045); type: functional;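 further: HCT116 colon tumor cells with beta catenin knocked out; cells exposed to compound for 60 hours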
# [14] = biological target: Heat shock protein HSP 90-alpha (Homo sapiens, UniProt P07900); type: functional, organism-based
# [15] = Concentration-dependent survival of SW480 colon cancer line, luminescence detection with CellTiter-Glo, half-maximal inhibitory concentration (AID 1117338); type: functional
# [16] = RKO cell viability reduction, dose response, CellTiter-Glo luminescence (AID 1117322); type: functional
# [17] = cytotoxicity toward HCT116 cells – cell-based, CellTiter-Glo luminescence, IC50, dose response (AID 1117332); type: functional; details: HCT-116
# [18] = SNU-C1 cell viability reduction, dose response, CellTiter-Glo luminescence (AID 1117323); type: functional, cell-based
# [19] = half-maximal inhibitory concentration for glucagon-like peptide-1 release, STC-1 cell line, dose-response (AID 1117345); type: functional, cell-based
# [20] = cytotoxicity toward Colo320 cells – cell-based, CellTiter-Glo luminescence, IC50, dose response (AID 1117334); type: functional; details: COLO 320
# [21] = cytotoxicity toward HT-29 cells – cell-based, CellTiter-Glo luminescence, IC50, dose response (AID 1117330); type: functional
# [22] = CellTiter-Glo luminescent dose response of DLD-1 viability loss (AID 1117352); type: functional
# [23] = Glucagon-like peptide 1 release potency, NCI-H716 cell line, dose-response, half-maximal inhibitory concentration (AID 1117344); type: functional, cell-based
# [24] = Late stage counterscreen results from the probe development effort to identify activators of signal transducer and activator of transcription 1 (STAT1): luminescence-based cell-based dose response assay to identify cytotoxic compounds.; type: functional
# [25] = biological target: Voltage-gated inwardly rectifying potassium channel KCNH2 (Homo sapiens, UniProt Q12809); test: hERG protection from proarrhythmic block, potency, dose response, cell-based, thallium flux (AID 2121); type: ADME
# [26] = biological target: Tyrosyl-DNA phosphodiesterase 2 (Homo sapiens, UniProt O95551); test: human TDP2 enzyme inhibitors, dose response, biochemical, epi absorbance, IC50 (AID 743297)
# [27] = biological target: Peroxisome proliferator-activated receptor gamma/Nuclear receptor corepressor 2 (Homo sapiens, UniProt P37231+Q9Y618); test: Counterscreen for NR2E3 inverse agonists: TR-FRET-based biochemical high throughput dose response assay to identify inverse agonists of the interaction between peroxisome proliferator-activated receptor gamma (PPARg) and nuclear receptor co-repressor 2 (NCOR2).; type: functional
# Chain of Peroxisome proliferator-activated receptor gamma/Nuclear receptor corepressor 2 (P37231 whole entry): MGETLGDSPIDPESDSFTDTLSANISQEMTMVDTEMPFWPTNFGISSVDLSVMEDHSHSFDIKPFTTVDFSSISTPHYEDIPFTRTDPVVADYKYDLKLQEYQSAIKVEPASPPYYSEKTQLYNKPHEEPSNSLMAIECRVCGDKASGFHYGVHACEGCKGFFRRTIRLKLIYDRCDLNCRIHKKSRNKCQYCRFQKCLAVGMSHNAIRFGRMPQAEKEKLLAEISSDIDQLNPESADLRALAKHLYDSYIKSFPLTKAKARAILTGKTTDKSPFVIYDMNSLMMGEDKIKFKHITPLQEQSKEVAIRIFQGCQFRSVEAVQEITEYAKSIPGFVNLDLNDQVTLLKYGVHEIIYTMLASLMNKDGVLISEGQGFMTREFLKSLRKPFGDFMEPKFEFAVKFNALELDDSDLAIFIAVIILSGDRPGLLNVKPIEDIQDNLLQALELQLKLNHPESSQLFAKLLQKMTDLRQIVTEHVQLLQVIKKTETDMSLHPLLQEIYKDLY
# Chain of Peroxisome proliferator-activated receptor gamma/Nuclear receptor corepressor 2 (Q9Y618 whole entry): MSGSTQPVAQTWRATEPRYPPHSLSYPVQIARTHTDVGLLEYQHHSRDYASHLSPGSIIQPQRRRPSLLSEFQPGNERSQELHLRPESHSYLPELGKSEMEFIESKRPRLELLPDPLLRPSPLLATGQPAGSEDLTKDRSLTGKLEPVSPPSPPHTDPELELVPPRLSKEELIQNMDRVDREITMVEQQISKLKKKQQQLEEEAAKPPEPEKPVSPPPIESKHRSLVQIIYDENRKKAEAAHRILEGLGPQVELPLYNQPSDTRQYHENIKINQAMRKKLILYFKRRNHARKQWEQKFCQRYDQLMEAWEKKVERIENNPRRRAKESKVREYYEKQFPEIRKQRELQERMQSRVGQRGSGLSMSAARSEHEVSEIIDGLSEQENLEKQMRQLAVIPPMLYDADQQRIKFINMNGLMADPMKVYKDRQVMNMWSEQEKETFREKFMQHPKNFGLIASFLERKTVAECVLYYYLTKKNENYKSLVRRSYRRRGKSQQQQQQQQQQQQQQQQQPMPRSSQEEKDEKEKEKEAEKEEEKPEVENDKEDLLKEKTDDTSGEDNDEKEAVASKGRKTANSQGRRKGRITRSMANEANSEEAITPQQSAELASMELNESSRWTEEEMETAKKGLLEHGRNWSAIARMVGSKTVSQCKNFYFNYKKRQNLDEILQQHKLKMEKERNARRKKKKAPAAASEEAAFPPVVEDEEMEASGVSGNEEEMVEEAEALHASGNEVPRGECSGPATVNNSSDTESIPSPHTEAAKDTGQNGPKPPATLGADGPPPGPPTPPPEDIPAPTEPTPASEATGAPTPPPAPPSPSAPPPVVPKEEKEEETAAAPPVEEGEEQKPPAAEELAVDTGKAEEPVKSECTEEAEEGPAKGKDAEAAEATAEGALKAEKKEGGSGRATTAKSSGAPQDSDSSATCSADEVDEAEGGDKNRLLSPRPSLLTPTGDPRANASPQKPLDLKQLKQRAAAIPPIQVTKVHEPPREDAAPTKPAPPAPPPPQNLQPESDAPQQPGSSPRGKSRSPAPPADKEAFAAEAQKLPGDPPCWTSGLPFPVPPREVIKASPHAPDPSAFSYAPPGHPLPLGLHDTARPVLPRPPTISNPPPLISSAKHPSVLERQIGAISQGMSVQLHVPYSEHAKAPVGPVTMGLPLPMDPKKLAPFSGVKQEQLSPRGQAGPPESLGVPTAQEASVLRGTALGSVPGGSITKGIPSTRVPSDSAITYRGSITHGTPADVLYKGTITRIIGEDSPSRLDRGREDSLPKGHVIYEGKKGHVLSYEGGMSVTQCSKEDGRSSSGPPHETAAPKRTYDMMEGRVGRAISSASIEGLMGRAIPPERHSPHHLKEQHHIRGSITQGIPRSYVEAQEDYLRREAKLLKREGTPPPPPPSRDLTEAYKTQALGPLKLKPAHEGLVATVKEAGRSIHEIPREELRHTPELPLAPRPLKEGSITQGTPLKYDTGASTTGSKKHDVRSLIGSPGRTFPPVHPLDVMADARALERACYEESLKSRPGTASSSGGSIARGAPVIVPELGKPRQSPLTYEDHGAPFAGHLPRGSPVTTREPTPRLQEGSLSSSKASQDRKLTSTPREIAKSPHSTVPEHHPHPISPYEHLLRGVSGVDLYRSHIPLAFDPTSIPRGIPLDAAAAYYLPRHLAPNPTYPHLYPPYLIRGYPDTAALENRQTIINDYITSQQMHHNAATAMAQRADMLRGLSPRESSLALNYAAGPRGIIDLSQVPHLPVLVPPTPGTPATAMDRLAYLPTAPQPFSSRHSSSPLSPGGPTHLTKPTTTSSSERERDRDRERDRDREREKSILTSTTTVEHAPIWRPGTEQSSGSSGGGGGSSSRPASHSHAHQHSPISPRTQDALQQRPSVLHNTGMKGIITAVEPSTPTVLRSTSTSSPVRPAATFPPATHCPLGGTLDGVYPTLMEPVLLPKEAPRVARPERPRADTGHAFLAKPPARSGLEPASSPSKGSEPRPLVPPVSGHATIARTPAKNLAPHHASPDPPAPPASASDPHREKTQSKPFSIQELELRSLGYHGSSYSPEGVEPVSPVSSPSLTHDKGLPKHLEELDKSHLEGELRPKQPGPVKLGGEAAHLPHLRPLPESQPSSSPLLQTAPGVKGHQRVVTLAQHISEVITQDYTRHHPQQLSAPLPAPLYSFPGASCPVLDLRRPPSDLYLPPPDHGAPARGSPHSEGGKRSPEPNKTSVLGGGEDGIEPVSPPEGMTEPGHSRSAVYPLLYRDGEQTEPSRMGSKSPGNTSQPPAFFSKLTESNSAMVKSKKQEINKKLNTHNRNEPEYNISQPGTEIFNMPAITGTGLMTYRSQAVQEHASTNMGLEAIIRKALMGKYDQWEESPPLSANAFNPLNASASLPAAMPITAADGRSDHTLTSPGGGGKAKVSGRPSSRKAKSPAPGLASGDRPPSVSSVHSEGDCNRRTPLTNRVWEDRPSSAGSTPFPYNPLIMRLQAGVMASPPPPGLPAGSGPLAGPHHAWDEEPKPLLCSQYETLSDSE
# [28] = biological target: Photoreceptor-specific nuclear receptor (Homo sapiens, UniProt Q9Y5X4); test: NR2E3 inverse agonists, dose response, biochemical, TR-FRET (AID 463256); type: functional
# Chain of Photoreceptor-specific nuclear receptor (Q9Y5X4 whole entry): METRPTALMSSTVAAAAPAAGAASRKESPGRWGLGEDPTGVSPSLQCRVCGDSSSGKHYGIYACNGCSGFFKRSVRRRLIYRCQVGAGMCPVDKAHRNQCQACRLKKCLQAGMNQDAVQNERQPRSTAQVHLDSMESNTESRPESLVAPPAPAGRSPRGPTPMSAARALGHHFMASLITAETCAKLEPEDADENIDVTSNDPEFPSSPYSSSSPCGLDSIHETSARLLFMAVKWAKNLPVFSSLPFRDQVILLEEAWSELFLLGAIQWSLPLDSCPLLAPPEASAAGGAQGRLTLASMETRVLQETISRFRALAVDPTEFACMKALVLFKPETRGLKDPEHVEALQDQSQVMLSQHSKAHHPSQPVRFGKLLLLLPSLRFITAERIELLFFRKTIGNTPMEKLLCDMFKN
# Galanin receptor type 2 = Galanin receptor type 2 (Homo sapiens, UniProt O43603); test: Dose Response cell-based high-throughput screening assay to identify antagonists of galanin receptor 2 (GALR2). [Related pubchem assays: 828, 866 ]; type: functional
compound,measurement,setting,value
COc1ncnc2c1N=C1CC(C)(C)CC(N)=C1S2,IC50,14-3-3 protein gamma,30 µM (active)
same,EC50,"Troponin, cardiac muscle",> 7.94 µM (active)
CCOc1ccc(-c2c(C(=O)N/N=C/c3ccc(Cl)cc3)nnn2-c2nonc2N)cc1,EC50,Oxytocin receptor,> 29.9 µM (not active)
c1ccc(-c2cc(SCCCN3CCCCC3)c3ccccc3n2)cc1,IC50,[1],66.9 µM (inactive)
same,IC50,[2],> 80 µM (inactive)
Clc1ccc(-n2nnc(-c3cccnc3Cl)n2)cn1,IC50,Bcl-2-related protein A1 [3],> 100 µM (not active)
same,IC50,Bcl-2-related protein A1 [4],> 100 µM (not active)
Cn1nnc(NC(=S)NC(=O)c2ccc(-c3ccc(Br)cc3)o2)n1,IC50,[5],> 100 µM (active)
COc1cc([N+](=O)[O-])cc(/C=N/NC(=O)c2ccc(C)nc2)c1O,EC50,[6],2.62 µM (active)
same,EC50,[7],> 100 µM (active)
same,EC50,Streptococcus,2.22 µM (active)
same,IC50,Nonstructural protein 1,5.49 µM (active)
N#Cc1c(NC(=O)C2CC=CCC2C(=O)O)sc2c1CCCCCC2 (centres undefined),IC50,Leucine aminopeptidase,< 1 µM (active)
same,IC50,Aspartyl aminopeptidase,> 73.5 µM (not active)
same,IC50,Procathepsin L,> 59.6 µM (not active)
CCOc1ccc(-n2c(SCC(=O)Nc3cc(OC)c([N+](=O)[O-])cc3C)nc3ccccc32)cc1,IC50,[8],43 µM (active)
Cc1cc(C(=O)CSc2nc3ccccc3c(=O)n2C)c(C)n1CC1CCCO1 (centres undefined),IC50,[9],> 35 µM (not active)
same,IC50,[10],> 50 µM (not active)
same,IC50,[11],> 50 µM (not active)
Oc1ccc(Cl)cc1Cc1cc(Cl)ccc1O [DICHLOROPHEN],EC50,[12],15.7 µM (active)
same,EC50,[13],16.4 µM (active)
same,AC50,[14],8 µM (active)
same,IC50,[15],2.5 µM (active)
same,IC50,[16],1.93 µM (active)
same,IC50,[17],1.55 µM (active)
same,IC50,[18],0.546 µM (active)
same,IC50,[19],> 40 µM (inactive)
same,IC50,[20],1.21 µM (active)
same,IC50,[21],4.69 µM (active)
same,IC50,[22],0.862 µM (active)
same,IC50,[23],15.6 µM (inactive)
Cc1nnc(SCC(=O)Nc2ccc(-c3nc4ccccc4s3)cc2)s1,IC50,[24],> 55.7 µM (not active)
CCOC(=O)C1=C(Cc2ccc(C)cc2)C(=O)c2ccccc2C1=O,EC50,[6],6.54 µM (active)
same,EC50,[25],4.1 µM (active)
same,EC50,Streptococcus,6.91 µM (active)
same,IC50,[26],> 128 µM (inactive)
COc1ccc(NC(=O)CSc2nnc(-c3cccs3)n2-c2ccccc2)cc1,IC50,[27],2.16 µM (active)
same,IC50,[28],2.09 µM (active)
c1ccc2c3nc[nH]c(NCC4CCCO4)c-3nc2c1 (centres undefined),IC50,Galanin receptor type 2,> 42 µM (not active)
